Counter-ions that a name gives are not always drawn.
Tests used:
[1] = target: T1, human RORγt ligand binding domain (RORγt LBD) (Homo sapiens, UniProt P51449); experiment: ThermoFluor® Assay (RORγt thermal shift binding); conditions: 0.065 mg/mL RORγt, 60 µM 1,8-ANS, pH 7.0; estimated from concentration response curves
T1 construct: His-tag (N); TurboTEV protease cleavage site (ENLYFQG) (N); made in house; host or cells: E. coli (pHIS1, modified pET vector)
T1 sequence (P51449 258-518): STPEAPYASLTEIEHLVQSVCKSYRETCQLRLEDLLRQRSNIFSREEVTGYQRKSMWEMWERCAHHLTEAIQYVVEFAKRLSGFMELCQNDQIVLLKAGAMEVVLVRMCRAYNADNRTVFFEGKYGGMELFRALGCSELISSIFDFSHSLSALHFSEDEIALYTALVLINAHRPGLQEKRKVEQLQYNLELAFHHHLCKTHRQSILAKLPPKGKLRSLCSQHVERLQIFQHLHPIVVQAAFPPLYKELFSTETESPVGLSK
Description: This approach is applicable to a wide variety of systems, and rigorous in theoretical interpretation through quantitation of equilibrium binding constants (KD).
The shift in the melting point described as a ΔTm is proportional to the concentration and affinity of the ligand. The compound potency may be compared as a rank order of either ATm values at a single compound concentration or in terms of KD values, estimated from concentration response curves.
ThermoFluor® experiments were carried out using instruments owned by Janssen Research and Discovery, L.L.C. through its acquisition of 3-Dimensional Pharmaceuticals, Inc. 1,8-ANS (Invitrogen) was used as a fluorescent dye. Protein and compound solutions are dispensed into black 384-well polypropylene PCR microplates (Abgene) and overlayed with silicone oil (1 µL, Fluka, type DC 200) to prevent evaporation.
Bar-coded assay plates are robotically loaded onto a thermostatically controlled PCR-type thermal block and then heated at a typical ramp-rate of 1 °C/minute for all experiments. Fluorescence was measured by continuous illumination with UV light (Hamamatsu LC6) supplied via fiber optic and filtered through a band-pass filter (380-400 nm; >6 OD cutoff). Fluorescence emission of the entire 384-well plate was detected by measuring light intensity using a CCD camera (Sensys, Roper Scientific) filtered to detect 500 ± 25 nm, resulting in simultaneous and independent readings of all 384 wells. Images were collected at each temperature, and the sum of the pixel intensity in a given area of the assay plate was recorded versus temperature. Reference wells contained RORyt without compounds, and the assay conditions were as follows: • 0.065 mg/mL RORγt • 60 µM 1,8-ANS • 100 mM Hepes, pH 7.0 • 10 mM NaCl • 2.5 mM GSH • 0.002% Tween-20
Project compounds were arranged in a pre-dosed mother plate (Greiner Bio-one) wherein compounds are serially diluted in 100% DMSO by 1:2 from a high concentration of 10 mM over 12 columns within a series (column 12 is a reference well containing DMSO, no compound). The compounds were robotically dispensed directly into assay plates (1x = 46 nL) using a Hummingbird capillary liquid handling instrument (Digilab). Following compound dispense, protein and dye in buffer was added to achieve the final assay volume of 3 µL, followed by 1 µL of silicone oil.

full-length human RORγt = target: T2, full-length human RORγt (Homo sapiens, UniProt P51449); experiment: RORγt (full-length human) Reporter Assay (GAL4 luciferase, HEK293T cells); format: cell-based; conditions: for inhibition at 0.67 µM / inhibition at 2 µM: HEK-293T; for inhibition at 0.67 µM: 0.67 µM compound concentration (footnote *), read-out: RORγt (FL) Reporter Assay, % inhibition (values marked *); for IC50: overnight (16 to 20 hours) incubation, read-out: RORγt (FL) Reporter Assay, IC50; for inhibition at 2 µM: read-out: RORγt (FL) Reporter Assay, % inhibition @ 2 µM
T2 construct: expressed in transfected cells; host or cells: HEK293T
T2 sequence (P51449 1-497 isoform P51449-2): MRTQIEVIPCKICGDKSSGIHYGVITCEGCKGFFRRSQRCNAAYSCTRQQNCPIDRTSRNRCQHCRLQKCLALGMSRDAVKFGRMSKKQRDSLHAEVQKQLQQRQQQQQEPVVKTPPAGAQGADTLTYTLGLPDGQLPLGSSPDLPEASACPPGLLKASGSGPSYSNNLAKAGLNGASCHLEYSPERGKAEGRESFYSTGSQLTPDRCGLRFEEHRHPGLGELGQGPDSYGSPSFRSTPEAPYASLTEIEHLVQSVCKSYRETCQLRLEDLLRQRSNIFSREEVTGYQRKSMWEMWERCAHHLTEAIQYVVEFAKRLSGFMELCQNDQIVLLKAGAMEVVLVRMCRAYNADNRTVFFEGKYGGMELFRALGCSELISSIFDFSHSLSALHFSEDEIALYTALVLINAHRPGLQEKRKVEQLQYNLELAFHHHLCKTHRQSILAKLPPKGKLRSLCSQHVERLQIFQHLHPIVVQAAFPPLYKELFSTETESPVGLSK
Description: (§1) Compounds were assessed for RORgt functional modulation using either the RORgt ligand binding domain (LBD) reporter assay, or the RORgt full-length (FL) reporter assay.
A reporter assay was used to test functional activity of RORγt modulatory compounds on transcriptional activation driven by full-length human RORγt. Cells used in this assay were transiently co-transfected with three different plasmids, one expressing the GAL4-DNA binding domain (DBD)-RORγt fusion protein under control of a CMV promoter (NH2-Gal4-DBD:RORC-COOH in pCMV-BD, Stratagene #211342), and two reporter plasmids - the firefly luciferase reporter under control of a GAL4 promoter (pFR-Luc 2x GAL4) and Renilla luciferase reporter under control of CMV promoter (pRL-CMV, Promega #E2261). The full-length coding sequence was used for human RORγt, i.e., nucleotides 142-1635 of human RORγt, transcript variant 2, NCBI Accession: NM_001001523.1 (SEQ ID NO:1). HEK293T cells were plated at 35000 per well in 96-well plate in medium of MEM with 8.6% FBS. After 18-22 hours incubation, the transfection was carried out by using a PEI solution with 170.5 ng total DNA/well (50 ng pCMV-BD-ROR plus 20 ng of pFR-Luc reporter and 0.5 ng of pRL-CMV reporter plus 100 ng Carrier DNA (Clontech # 630440) for each well). 4-6 hours after transfection, cells were treated with compounds for overnight in the medium with final concentration of FBS 1.1% and DMSO 0.1%. After overnight (16 to 20 hours) incubation, media were removed and cells were lysed with 20 µL 1x Passive Lysis Buffer (Promega) for 10-15 minutes. Luminescence was measured using a BMG LUMIstar OPTIMA plate reader, after addition of 75 µL/well firefly luciferase buffer, followed by 75 µL/well Renilla luciferase buffer. To calculate the effect of compounds on RORγt activity, firefly values were normalized against values of DMSO only and values of reference compound at saturating concentration, then further normalized against Renilla signals. IC50s were generated by plotting final Renilla normalized data against compound concentration and percent inhibition was calculated against DMSO control.

human RORγt LBD = target: T3, human RORγt LBD (Homo sapiens, UniProt P51449); experiment: RORγt (LBD) Reporter Assay (GAL4 luciferase, HEK293T cells); format: cell-based; conditions: for inhibition at 6 µM: HEK-293T, 6 µM compound; for IC50: compounds for 24 hours
T3 construct: expressed in transfected cells; host or cells: HEK293T
T3 sequence (P51449 258-518): T1 sequence (P51449 258-518)
Description: as §1
A reporter assay was used to test functional activity of RORγt modulatory compounds on transcriptional activation driven by the RORγt LBD. Cells used in the assay were co-transfected with two constructs. The first construct, pBIND-RORγt LBD, contained the wild type human RORγt LBD fused to the DNA binding domain of the GAL4 protein. The second construct, pGL4.31 (Promega Cat no. C935A), contained multiple GAL4 responsive DNA elements upstream of firefly luciferase. […] The mutant construct was called pBIND-RORγt-AF2.
The pBIND vector contains the GAL4 DNA Binding Domain (GAL4 DBD) and the renilla luciferase gene under control of the SV40 promoter. Renilla luciferase expression serves as a control for transfection efficiency and cell viability.
The reporter assay was performed by transiently transfecting HEK293T cells with 5 µg of pBIND-RORγt LBD or pBIND-RORγt LBD-AF2 and 5 µg pGL4.31 (Promega Cat no. C935A) using Fugene 6 (Invitrogen Cat no. E2691) at a 1:6 ratio of DNA: Fugene 6 in a T-75 flask in which cells were at least 80% confluent. Twenty four hours after bulk transfection, cells were plated into 96-well plates at 50,000 cells/well in phenol-red free DMEM containing 5% Lipid Reduced FCS and Pen/Strep. Six hours after plating, cells were treated with compounds for 24 hours. Media was removed and cells were lysed with 50 µL 1x Glo Lysis Buffer (Promega). Dual Glo Luciferase Reagent (50 µL/well) was then added and firefly luciferase luminescence was read on an Envision after a ten minute incubation. Finally, Stop and Glo reagent (50 µL/well) was added and renilla luciferase luminescence was read on an Envision after a ten minute incubation. To calculate the effect of compounds on RORγt activity, the ratio of firefly to renilla luciferase was determined and plotted against compound concentration. Agonist compounds increase RORγt-driven luciferase expression, and antagonist or inverse agonist compounds decrease luciferase expression.

SMILES	Kd [1]	inhibition at 0.67 µM (full-length human RORγt)	IC50 (full-length human RORγt)	inhibition at 2 µM (full-length human RORγt; 2 µM compound)	inhibition at 6 µM (human RORγt LBD)	IC50 (human RORγt LBD)	RORγt (FL) Reporter Assay, % inhibition @ 2 µM (full-length human RORγt; 2 µM compound, 2 µM)
COc1nc2ccc(C(O)c3ccc(C#N)cc3)cc2c(Cl)c1Cc1ccc(C#N)cc1 (stereo not drawn) [Example 9, 4-((4-Chloro-3-(4-cyanobenzyl)-2-methoxyquinolin-6-yl)(hydroxy)methyl)benzonitrile]	680 nM	42%	150 nM	–	–	–	–
COc1nc2ccc(C(O)c3c(C)noc3C)cc2c(Cl)c1Cc1ccc(C(F)(F)F)cc1 (single isomer, unassigned) [Example 20b, (4-Chloro-2-methoxy-3-(4-(trifluoromethyl)benzyl)quinolin-6-yl)(3,5-dimethylisoxazol-4-yl)methanol]	290 nM	–	300 nM	84%	–	–	–
COc1nc2ccc(C(O)c3c(C)noc3C)cc2c(Cl)c1Cc1ccc(C(F)(F)F)cc1 (stereo not drawn) [Example 20a, (4-Chloro-2-methoxy-3-(4-(trifluoromethyl)benzyl)quinolin-6-yl)(3,5-dimethylisoxazol-4-yl)methanol]	86 nM	–	52 nM	97%	–	–	–
COc1nc2ccc(C(O)c3c(C)nn(C)c3C)cc2c(Cl)c1Cc1ccc(C(F)(F)F)cc1 (stereo not drawn) [Example 34a, (4-Chloro-2-methoxy-3-(4-(trifluoromethyl)benzyl)quinolin-6-yl)(1,3,5-trimethyl-1H-pyrazol-4-yl)methanol]	11 nM	95%	20 nM	–	–	–	–
Cc1ccc(C(O)c2ccc3nc(N4CCC4)c(Cc4ccc(C(F)(F)F)cc4)c(Cl)c3c2)c(C)n1 (stereo not drawn) [Example 23a, {2-Azetidin-1-yl-4-chloro-3-[4-(trifluoromethyl)benzyl]quinolin-6-yl}(2,6-dimethylpyridin-3-yl)methanol]	140 nM	–	–	–	95%	180 nM	–
COc1nc2ccc(C(O)c3c(C)noc3C)cc2c(Cl)c1Cc1ccc(C(F)(F)F)cc1 (single isomer, unassigned) [Example 20c, (4-Chloro-2-methoxy-3-(4-(trifluoromethyl)benzyl)quinolin-6-yl)(3,5-dimethylisoxazol-4-yl)methanol]	22 nM	–	23 nM	–	–	–	99%
Cn1cncc1C(O)c1ccc2nc(Cl)c(-c3ccccc3)c(Cl)c2c1 (stereo not drawn) [Example 2, (2,4-Dichloro-3-phenylquinolin-6-yl)(1-methyl-1H-imidazol-5-yl)methanol]	1600 nM	–	–	–	12%	> 6000 nM	–
COc1nc2ccc(C(O)c3cnc(C)n3C)cc2c(Cl)c1Cc1ccc(C(F)(F)F)cc1 (stereo not drawn) [Example 15a, (4-Chloro-2-methoxy-3-(4-(trifluoromethyl)benzyl)quinolin-6-yl)(1,2-dimethyl-1H-imidazol-5-yl)methanol]	74 nM	–	–	–	101%	43 nM	–
Cc1noc(C)c1C(O)c1ccc2nc(Cl)c(-c3ccccc3)c(Cl)c2c1 (stereo not drawn) [Example 1, (2,4-Dichloro-3-phenylquinolin-6-yl)(3,5-dimethylisoxazol-4-yl)methanol]	550 nM	–	–	–	48%	> 6000 nM	–
COc1nc2c(C)cc(C(O)c3cncn3C)cc2c(Cl)c1Cc1ccc(-n2cccn2)cc1 (stereo not drawn) [Example 12, (3-(4-(1H-Pyrazol-1-yl)benzyl)-4-chloro-2-methoxy-8-methylquinolin-6-yl)(1-methyl-1H-imidazol-5-yl)methanole•TFA]	600 nM	–	–	–	92%	~1000 nM	–
COc1nc2ccc(C(O)c3ccc(C)nc3C)cc2cc1Cc1ccc(C(F)(F)F)cc1 (stereo not drawn) [Example 16, (2,6-Dimethylpyridin-3-yl)(2-methoxy-3-(4-(trifluoromethyl)benzyl)quinolin-6-yl)methanol]	4800 nM	–	–	–	88%	1900 nM	–
